Measured values published in ChEMBL document CHEMBL1140879, “Synthesis of isothiazol-3-one derivatives as inhibitors of histone acetyltransferases (HATs)” (Bioorg Med Chem, 2009).

Key:
[1] = biological target: Histone acetyltransferase KAT2B (Homo sapiens, UniProt Q92831); assay: Inhibition of GST-fused recombinant HAT PCAF expressed in Escherichia coli by filter assay
[2] = biological target: T1, Histone acetyltransferase p300 (Homo sapiens, UniProt Q09472); assay: Inhibition of GST-fused recombinant HAT p300 expressed in Escherichia coli by filter assay
[3] = biological target: T1, Histone acetyltransferase p300; assay: Inhibition of recombinant His-tagged HAT p300 expressed in Sf21-Baculovirus system
[4] = biological target: T1, Histone acetyltransferase p300; assay: Inhibition of HAT p300

T1 sequence (Q09472 whole entry, the tested form may be a part): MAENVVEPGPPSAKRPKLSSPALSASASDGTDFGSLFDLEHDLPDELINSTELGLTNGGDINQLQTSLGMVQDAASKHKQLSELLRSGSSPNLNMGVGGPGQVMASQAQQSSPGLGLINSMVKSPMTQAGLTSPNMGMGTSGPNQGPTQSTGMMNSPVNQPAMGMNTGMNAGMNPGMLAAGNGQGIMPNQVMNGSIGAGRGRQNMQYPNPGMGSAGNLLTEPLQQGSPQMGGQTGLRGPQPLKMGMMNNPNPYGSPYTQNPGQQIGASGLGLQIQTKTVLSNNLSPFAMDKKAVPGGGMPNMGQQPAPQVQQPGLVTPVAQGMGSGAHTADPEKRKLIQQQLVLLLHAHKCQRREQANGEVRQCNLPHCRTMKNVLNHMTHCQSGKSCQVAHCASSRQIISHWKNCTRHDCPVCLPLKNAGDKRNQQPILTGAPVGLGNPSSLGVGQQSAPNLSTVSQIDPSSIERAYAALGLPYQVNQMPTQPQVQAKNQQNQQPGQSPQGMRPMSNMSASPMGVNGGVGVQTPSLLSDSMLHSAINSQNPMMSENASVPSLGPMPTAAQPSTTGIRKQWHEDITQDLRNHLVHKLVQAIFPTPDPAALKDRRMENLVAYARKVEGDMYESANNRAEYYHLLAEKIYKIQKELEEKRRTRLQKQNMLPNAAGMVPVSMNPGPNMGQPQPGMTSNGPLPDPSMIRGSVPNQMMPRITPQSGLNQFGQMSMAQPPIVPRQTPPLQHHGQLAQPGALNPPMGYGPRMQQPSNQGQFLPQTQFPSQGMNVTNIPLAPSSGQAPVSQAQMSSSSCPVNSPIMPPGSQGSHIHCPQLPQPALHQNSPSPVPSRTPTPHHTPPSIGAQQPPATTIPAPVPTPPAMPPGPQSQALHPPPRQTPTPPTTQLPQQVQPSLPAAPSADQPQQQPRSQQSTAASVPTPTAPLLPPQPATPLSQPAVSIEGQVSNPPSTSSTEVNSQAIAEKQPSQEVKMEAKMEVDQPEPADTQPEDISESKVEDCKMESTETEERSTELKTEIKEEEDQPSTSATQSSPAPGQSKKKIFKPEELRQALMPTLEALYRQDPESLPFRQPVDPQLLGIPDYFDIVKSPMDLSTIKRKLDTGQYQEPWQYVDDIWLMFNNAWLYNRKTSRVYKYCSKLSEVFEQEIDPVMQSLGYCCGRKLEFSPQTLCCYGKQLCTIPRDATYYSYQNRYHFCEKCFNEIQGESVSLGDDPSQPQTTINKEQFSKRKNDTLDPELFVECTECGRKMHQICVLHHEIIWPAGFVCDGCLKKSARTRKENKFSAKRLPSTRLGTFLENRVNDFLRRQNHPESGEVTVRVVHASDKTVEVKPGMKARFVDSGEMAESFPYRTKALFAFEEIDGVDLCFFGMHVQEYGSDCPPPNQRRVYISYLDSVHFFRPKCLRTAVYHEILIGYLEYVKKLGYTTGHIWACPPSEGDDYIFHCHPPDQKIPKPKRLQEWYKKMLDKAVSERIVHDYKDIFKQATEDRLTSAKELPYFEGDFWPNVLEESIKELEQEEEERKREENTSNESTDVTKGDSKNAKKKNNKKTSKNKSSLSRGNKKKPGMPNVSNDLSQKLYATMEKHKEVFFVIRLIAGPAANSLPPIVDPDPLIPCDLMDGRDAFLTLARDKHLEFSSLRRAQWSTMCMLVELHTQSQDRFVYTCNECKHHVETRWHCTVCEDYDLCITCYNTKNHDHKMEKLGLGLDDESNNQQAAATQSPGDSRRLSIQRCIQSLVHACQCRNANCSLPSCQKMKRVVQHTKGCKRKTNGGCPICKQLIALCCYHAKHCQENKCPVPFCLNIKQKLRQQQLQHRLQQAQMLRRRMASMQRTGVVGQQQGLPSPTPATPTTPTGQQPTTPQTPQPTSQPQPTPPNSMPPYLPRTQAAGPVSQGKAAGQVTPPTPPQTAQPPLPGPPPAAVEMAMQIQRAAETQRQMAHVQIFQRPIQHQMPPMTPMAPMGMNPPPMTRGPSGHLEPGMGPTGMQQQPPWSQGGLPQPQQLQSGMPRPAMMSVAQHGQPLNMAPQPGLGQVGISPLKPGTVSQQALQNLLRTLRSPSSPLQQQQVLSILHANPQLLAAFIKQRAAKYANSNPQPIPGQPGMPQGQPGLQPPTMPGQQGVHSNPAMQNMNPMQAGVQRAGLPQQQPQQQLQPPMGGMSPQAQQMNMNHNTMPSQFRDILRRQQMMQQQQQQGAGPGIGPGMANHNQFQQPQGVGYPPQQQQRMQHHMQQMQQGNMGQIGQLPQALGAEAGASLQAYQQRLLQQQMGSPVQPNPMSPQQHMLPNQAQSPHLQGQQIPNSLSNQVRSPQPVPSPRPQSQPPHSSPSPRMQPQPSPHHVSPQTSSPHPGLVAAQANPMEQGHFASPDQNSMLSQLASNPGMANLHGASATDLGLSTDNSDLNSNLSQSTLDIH
Histone acetyltransferase KAT2B, sequence (Q92831 whole entry, the tested form may be a part): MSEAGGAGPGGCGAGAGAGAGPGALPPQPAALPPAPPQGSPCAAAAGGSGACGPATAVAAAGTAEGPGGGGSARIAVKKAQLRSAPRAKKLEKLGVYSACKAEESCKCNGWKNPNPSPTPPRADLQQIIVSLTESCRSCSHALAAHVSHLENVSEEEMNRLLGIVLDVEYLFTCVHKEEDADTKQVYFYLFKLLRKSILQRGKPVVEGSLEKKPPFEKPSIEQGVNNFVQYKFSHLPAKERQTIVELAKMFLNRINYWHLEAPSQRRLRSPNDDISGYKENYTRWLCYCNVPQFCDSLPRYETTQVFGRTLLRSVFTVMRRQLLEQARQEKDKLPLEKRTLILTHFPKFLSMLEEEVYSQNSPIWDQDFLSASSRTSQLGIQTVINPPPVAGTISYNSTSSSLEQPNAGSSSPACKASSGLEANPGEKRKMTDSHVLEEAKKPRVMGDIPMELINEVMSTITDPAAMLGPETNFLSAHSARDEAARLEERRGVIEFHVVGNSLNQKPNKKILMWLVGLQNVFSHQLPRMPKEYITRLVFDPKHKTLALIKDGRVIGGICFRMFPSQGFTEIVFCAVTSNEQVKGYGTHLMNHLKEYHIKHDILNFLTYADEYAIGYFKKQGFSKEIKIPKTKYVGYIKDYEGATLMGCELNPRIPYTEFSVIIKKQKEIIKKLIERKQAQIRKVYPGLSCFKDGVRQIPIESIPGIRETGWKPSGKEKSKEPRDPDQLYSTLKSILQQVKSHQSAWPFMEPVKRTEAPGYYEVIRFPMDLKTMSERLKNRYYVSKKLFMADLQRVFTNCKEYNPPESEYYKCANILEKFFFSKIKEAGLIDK

| IC50 [1] [µM] | Compound | other results |
| --- | --- | --- |
| 42.7 | [N-]=[N+]=NCc1csn(-c2ccccc2)c1=O | – |
| > 200 | COc1sn(-c2ccccc2)c(=O)c1C | – |
| 58 | [N-]=[N+]=NCc1cc(=O)n(-c2ccccc2)s1 | – |
| > 200 | O=C(Nc1ccccc1)OCc1cc(=O)n(-c2ccccc2)s1 | – |
| 109 | O=c1cc(CO)sn1-c1ccccc1 | – |
| 3.1 | O=c1ccsn1-c1cc(F)c(F)c(F)c1 | – |
| > 200 | O=c1cc(-c2ccccc2)sn1-c1ccccc1 | – |
| 7.5 | O=c1ccsn1-c1ccc(N2CCOCC2)cc1 | IC50 [2]: 9.9 µM |
| – | C=CC/C=C\C/C=C\CCCCCCCc1cccc(O)c1C(=O)O [ANACARDIC ACID] | IC50 [3]: 5 µM |
| 102 | COCc1csn(-c2ccccc2)c1=O | – |
| 1.5 | O=c1ccsn1-c1ccncc1 | IC50 [2]: 3 µM |
| > 200 | Cc1cc(=O)n(-c2ccccc2)s1 | – |
| 6.1 | O=c1c2cccnc2sn1-c1ccccc1 | – |
| 32 | Cc1csn(-c2ccccc2)c1=O | – |
| 162 | CC(=O)OCc1cc(=O)n(-c2ccccc2)s1 | – |
| 19 | O=c1ccsn1-c1ccccn1 | IC50 [2]: 28 µM |
| 19.8 | Cc1c(Cl)sn(-c2ccccc2)c1=O | – |
| 5.4 | CN(C)c1ccc(-n2sccc2=O)cc1 | – |
| 6.5 | O=c1ccsn1-c1cccnc1 | IC50 [2]: 14.4 µM |
| – | C=C(C)[C@@H](CC=C(C)C)C[C@@]12C[C@@H](CC=C(C)C)C(C)(C)[C@@](CC=C(C)C)(C(=O)C(C(=O)c3ccc(O)c(O)c3)=C1O)C2=O [GARCINOL] | IC50 [4]: 6 µM |

| Compound | IC50 [1] [µM] | other results |
| --- | --- | --- |
| O=c1ccsn1-c1cccc(Cl)c1F | 5.4 | – |
| O=c1ccsn1-c1ccccc1 | 28 | IC50 [2]: 23 µM |
